Blank lines part the entries; values can stand above or below the compound they belong to. Activity calls are given as the source filed them. The rule behind the calls is not given here.
Columns and labels:
[1] = target: T1, Transient receptor potential cation channel subfamily M member 8 (Rattus norvegicus, UniProt Q8R455); test: Antagonist activity at rat TRPM8 channel transfected in HEK293 cells assessed as inhibition of calcium currents by Fluo-4 NW dye based fluorimetric assay; type: cell-based
T1 sequence (Q8R455 whole entry): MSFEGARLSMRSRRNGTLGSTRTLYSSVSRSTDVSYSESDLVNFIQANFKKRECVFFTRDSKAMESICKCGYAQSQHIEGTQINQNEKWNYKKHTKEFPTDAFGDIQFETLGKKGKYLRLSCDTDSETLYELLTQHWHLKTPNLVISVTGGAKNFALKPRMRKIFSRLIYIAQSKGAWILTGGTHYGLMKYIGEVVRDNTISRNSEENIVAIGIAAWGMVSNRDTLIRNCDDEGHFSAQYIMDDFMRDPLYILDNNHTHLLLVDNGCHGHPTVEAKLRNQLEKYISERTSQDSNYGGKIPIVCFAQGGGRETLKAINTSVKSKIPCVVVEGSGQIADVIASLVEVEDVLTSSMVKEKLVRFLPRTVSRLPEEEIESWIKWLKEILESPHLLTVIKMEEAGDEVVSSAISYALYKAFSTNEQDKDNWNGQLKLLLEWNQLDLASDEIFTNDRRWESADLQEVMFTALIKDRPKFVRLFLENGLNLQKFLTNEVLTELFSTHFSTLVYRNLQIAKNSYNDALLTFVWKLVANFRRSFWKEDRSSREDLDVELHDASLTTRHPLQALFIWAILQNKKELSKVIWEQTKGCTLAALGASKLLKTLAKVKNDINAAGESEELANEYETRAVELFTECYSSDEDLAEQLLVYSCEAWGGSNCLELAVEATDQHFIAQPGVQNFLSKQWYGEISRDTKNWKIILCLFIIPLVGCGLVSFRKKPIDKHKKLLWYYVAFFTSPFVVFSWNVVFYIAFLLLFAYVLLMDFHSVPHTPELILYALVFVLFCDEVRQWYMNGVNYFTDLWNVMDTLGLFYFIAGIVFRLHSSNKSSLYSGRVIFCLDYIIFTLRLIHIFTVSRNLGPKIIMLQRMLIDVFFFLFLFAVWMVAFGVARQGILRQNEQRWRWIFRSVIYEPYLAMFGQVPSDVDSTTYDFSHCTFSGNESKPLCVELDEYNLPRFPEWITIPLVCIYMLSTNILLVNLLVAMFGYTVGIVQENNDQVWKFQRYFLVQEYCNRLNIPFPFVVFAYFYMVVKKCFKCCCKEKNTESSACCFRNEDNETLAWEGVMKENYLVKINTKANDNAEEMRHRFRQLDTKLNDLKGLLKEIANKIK

PNT2 [2] = test: Inhibition of R1881-induced DNA synthesis in human PNT2 cells at 10 uM incubated for 18 hrs by BrdU incorporation assay; type: functional, cell-based
CWR22R [3] = test: Inhibition of R1881-induced DNA synthesis in human 22Rv1 cells at 1 to 10 uM incubated for 18 hrs by BrdU incorporation assay; type: functional, cell-based; details: dose 1-10 µM
LNCaP C4-2B [4] = test: Inhibition of androgen-resistant human LNCaP C4-2B cells at 1 uM incubated for 18 hrs by BrdU incorporation assay; type: functional, cell-based
PNT2 [5] = test: Inhibition of DNA synthesis in human PNT2 cells at 0.01 to 10 uM incubated for 18 hrs by BrdU incorporation assay; type: functional, cell-based; details: dose 0.01-10 µM
[6] = target: Transient receptor potential cation channel subfamily M member 8 (Rattus norvegicus) (UniProt Q8R455); test: Inhibition of rat TRPM8 channel transfected in HEK293 cells assessed as inhibition of menthol-induced calcium currents at 0.01 to 10 uM at -60 mV measured for 90 secs by whole cell patch clamp method; type: cell-based; details: dose 0.01-10 µM, time 90.0 sec, DDE = dose-dependent effect
Chain of Transient receptor potential cation channel subfamily M member 8 (Rattus norvegicus) (Q8R455 whole entry, looked up): as the sequence (Q8R455 whole entry) above

[7] = target: T1, Transient receptor potential cation channel subfamily M member 8; test: Antagonist activity at rat TRPM8 channel transfected in HEK293 cells assessed as inhibition of menthol-induced calcium currents at -60 mV measured for 90 secs by whole cell patch clamp method; type: cell-based
PC-3 = test: Inhibition of DNA synthesis in human PC-3 cells at 0.01 to 10 uM incubated for 18 hrs by BrdU incorporation assay; type: functional, cell-based; details: dose 0.01-10 µM
CWR22R [8] = test: Inhibition of R1881-induced cell spheroid size of human 22Rv1 cells at 1 uM with medium replacement for every 3 days incubated for 17 days by phase contrast microscopy; type: functional, cell-based; details: time 17.0 day
LNCaP [9] = test: Inhibition of R1881-induced cell spheroid size of human LNCaP cells at 1 uM with medium replacement for every 3 days incubated for 17 days by phase contrast microscopy; type: functional, cell-based; details: time 17.0 day
LNCaP [10] = test: Inhibition of R1881-induced DNA synthesis in human LNCaP cells at 0.01 to 10 uM incubated for 18 hrs by BrdU incorporation assay; type: functional, cell-based; details: dose 0.01-10 µM
PNT2 [11] = test: Inhibition of R1881-induced DNA synthesis in human PNT2 cells at 1 uM incubated for 18 hrs by BrdU incorporation assay; type: functional, cell-based
LNCaP C4-2B [12] = test: Inhibition of androgen-resistant human LNCaP C4-2B cells at 0.1 uM incubated for 18 hrs by BrdU incorporation assay; type: functional, cell-based

IC50 [1]: 0.32 µM
SMILES: COC(=O)[C@H](Cc1ccccc1)N(Cc1ccccc1)Cc1ccccc1

inhibition [6]: Dde
IC50 [7]: 0.1 µM
IC50 [1]: 0.49 µM
SMILES: COC(=O)[C@H](Cc1ccc(O)c(O)c1)N(Cc1ccccc1)Cc1ccccc1
inhibition (PNT2 [2]): Active
inhibition (CWR22R [3]): Active
inhibition (LNCaP C4-2B [4]): Active
inhibition (PNT2 [5]): Active
inhibition (PC-3): Active
inhibition (CWR22R [8]): Active
inhibition (LNCaP [9]): Active

inhibition [6]: Dde
IC50 [7]: 0.11 µM
IC50 [1]: 0.21 µM
SMILES: COC(=O)[C@H](Cc1ccc(N)cc1)N(Cc1ccccc1)Cc1ccccc1
inhibition (PNT2 [2]): Active
inhibition (CWR22R [3]): Active
inhibition (LNCaP C4-2B [4]): Active
inhibition (PNT2 [5]): Active
inhibition (LNCaP [10]): Active
inhibition (PC-3): Active
inhibition (CWR22R [8]): Active
inhibition (LNCaP [9]): Active
inhibition (PNT2 [11]): Active

IC50 [1]: 2.1 µM
SMILES: O=C1[C@H]2Cc3cc(O)c(O)cc3[C@H](c3ccc(F)cc3)N2C(=O)N1c1cccc(C(F)(F)F)c1

inhibition [6]: Dde
IC50 [7]: 0.06 µM
IC50 [1]: 0.11 µM
SMILES: COC(=O)[C@H](Cc1ccc([N+](=O)[O-])cc1)N(Cc1ccccc1)Cc1ccccc1
inhibition (PNT2 [2]): Active
inhibition (CWR22R [3]): Active
inhibition (LNCaP C4-2B [4]): Active
inhibition (PNT2 [5]): Active
inhibition (LNCaP [10]): Active
inhibition (LNCaP C4-2B [12]): Active
inhibition (PC-3): Active
inhibition (CWR22R [8]): Active
inhibition (LNCaP [9]): Active

IC50 [1]: 0.29 µM
SMILES: COC(=O)[C@H](Cc1ccc(C)cc1)N(Cc1ccccc1)Cc1ccccc1

Further lines, the compound ahead of its results:

SMILES: COC(=O)[C@H](Cc1ccc(O)cc1)N(Cc1ccccc1)Cc1ccccc1
IC50 [1]: 0.25 µM

SMILES: COC(=O)[C@H](Cc1ccc(Cl)cc1)N(Cc1ccccc1)Cc1ccccc1
IC50 [1]: 0.28 µM

SMILES: O=C1[C@@H]2Cc3cc(O)c(O)cc3[C@@H](c3ccc(F)cc3)N2C(=O)N1c1cccc(C(F)(F)F)c1
IC50 [1]: 1.2 µM

SMILES: O=C(NCc1ccc(F)cc1)[C@@H]1Cc2cc(O)c(O)cc2[C@H](c2ccc(F)cc2)N1
IC50 [1]: 17.5 µM

SMILES: O=C1[C@H]2Cc3cc(O)c(O)cc3[C@H](c3ccc(F)cc3)N2C(=O)N1Cc1ccc(F)cc1
IC50 [1]: 2.2 µM

SMILES: O=C(NCc1ccc(F)cc1)[C@@H]1Cc2cc(O)c(O)cc2[C@@H](c2ccc(F)cc2)N1
IC50 [1]: 0.85 µM

SMILES: O=C1[C@@H]2Cc3cc(O)c(O)cc3[C@@H](c3ccc(F)cc3)N2C(=O)N1Cc1ccc(F)cc1
IC50 [1]: 1.7 µM

Source: ChEMBL document CHEMBL5113414, “New TRPM8 blockers exert anticancer activity over castration-resistant prostate cancer models” (Eur J Med Chem, 2022)
